Test results: US20240238268A1, “TREATMENTS AND METHODS FOR TREATING ALZHEIMER'S DISEASE” (Board of Supervisors of Louisiana State University and …, priority 2021, published 2024)

Tests used:
Format in all cases: in vivo, mouse
GFAP = GFAP protein level in brain, capillary-based immunoassay; conditions: aged 3xTg-AD female mice; TP-064 30 mg/kg, 7 days, IP or PRMT4-AAV
Protocol: (§1) Leukocytes velocity measurements were performed by linescans (512 lines/sec). *p<0.05 compared to aged 3xTg-AD male or C57 female evaluated by unpaired t-test. FIGS. 18A and 18B are capillary-based immunoassay and associated graphs showing PRMT4 inhibitor (TP-064) or AAV knockdown of PRMT4 reduced GFAP levels in aged 3xTg-AD female mice. Glial fibrillary acidic protein (GFAP, 55 kDa) was increased in aged 3xTg-AD female mice v. C57, which indicates neuroinflammation, but reversed with TP-064 (30 mg/kg, 7 days, IP) or PRMT4-AAV treatment in cortex, shown in FIG. 18A, and hippocampus, shown in FIG. 18B. Protein level was measured by capillary-based immunoassay and normalized to total protein. *p<0.05 as compared to C57, #p<0.05 v. 3xTg-AD evaluated by one-way ANOVA with Tukey's post-hoc analyses.
Capillary-phoresis immunoassay via ProteinSimple®: Quantification of all protein targets was achieved using Simple Western analysis in a Jess™ apparatus per the manufacturer's protocol (ProteinSimple, Bio-techne, Minneapolis, MN). […] Following homogenization and centrifugation (10,000×g, 5 min, 4° C.), protein concentration was determined in tissue protein supernatant samples using DC Protein Assay (Cat. No. 5000112, Bio-Rad Laboratories, Hercules, California) according to manufacturer instructions. […]

NO3+NO2 = assay: Nitrate/Nitrite colorimetric assay (Griess reaction) of whole brain; conditions: 3xTg-AD mice; 30 mg/kg, IP, 7 days
Protocol: Nitrate/Nitrite colorimetric assay: Following euthanasia, whole brains were dissected from mice. Cold (4 °C) phosphate-buffered saline (PBS) and glass tissue grinders were used to homogenize the whole brain. Homogenates were centrifuged at 10,000×g for 20 min at 4° C. The supernatant was collected and filtered using 10 kDa ultrafilter (Cat. No. […]010, Millipore, Burlington, VA). Nitrate and nitrite were quantified per manufacturer's instructions (Cat. No. 780001, Cayman Chemical, Ann Arbor, MI). In summary, 80 μL of supernatant was loaded into a 96-well plate with 10 μL enzyme cofactor, and 10 μL nitrate reductase. Following 3 hrs of incubation, 100 μL Griess reagent was added, and plate was incubated for 30 min. The standard curve was provided by the manufacturer, and all sample concentrations were determined from the standard curve values. Changes in absorbance were measured at 550 nm. Final nitrate/nitrite levels were expressed in μM concentration.

C57BL/6J mice = assay: Regional cortical cerebral blood flow, laser speckle contrast imaging, C57 mice
Protocol: Surgical Preparation and Anesthetic Procedure: Mice were anesthetized with 4% isoflurane (Cat. No. 21295098, Patterson Veterinary, Greeley, CO) and a mixture of O2 and N2O (30:70) via mask. Hair was shaved at the site of surgery (from the nape up to the eyes). Body temperature was maintained at 37° C. by a rodent heating pad with anal probe as a temperature reference (ThermoStar, RWD Life Science, San Diego, CA). Anesthesia was maintained by lowering isoflurane from 4% to 1%.
Thinned-skull preparation: Mice were placed in a stereotaxic frame to stabilize the skull and artificial tears (Patterson Veterinary, Greeley, CO) was applied in each eye. Dissection scissors and forceps were used to reveal the skull. A high-speed dental drill (RWD Life Science, San Diego, CA) was used to thin the skull creating a small window (1 mm in diameter) approximately 2 mm rostral and 1 mm lateral to the lambda, with saline irrigation to prevent overheating of the skull tissue. Laser speckle contrast imaging or two-photon laser scanning microscopy analyses were conducted following this preparation.
Laser speckle contrast imaging: Cerebral microvasculature was imaged by utilizing the thin skull preparation method. After thinning the skull, the mouse was placed in a stereotaxic apparatus. […]

aged 3xTg-AD female mice [1] = assay: Leukocyte rolling velocity, two-photon laser scanning microscopy
Protocol: FIGS. 17A-17D show leukocyte rolling velocity was reduced in aged 3xTg-AD female mice.
as §1

aged 3xTg-AD female mice [2] = assay: T-maze spontaneous alternation; conditions: 30 mg/kg, 7 days, IP
Protocol: FIGS. 20A and 20B are two graphs showing PRMT4 inhibitor (TP-064) or AAV knockdown of PRMT4 improved functional learning/memory in aged 3xTg-AD female mice. […] C57 but increased with administration of TP-064 (30 mg/kg, 7 days, IP). In FIG. 20B, in Novel Object Recognition, aged 3xTg-AD female mice had fewer number of entries in the novel zone v. C57. Treatment with TP-064 or brain-specific AAV knockdown of PRMT4 increased the number of entries. T-maze and novel object recognition test were utilized to analyze working/short-term and reference/long-term memory, respectively. * p<0.05 v. C57 via one-way ANOVA with Tukey's post-hoc analyses.

CNCCN1CCC(c2cc(CN(C)C(=O)c3cccc(Oc4ccccc4)c3)ccn2)CC1 [TP-064, N-Methyl-N-((2-(1-(2-(methylamino)ethyl)piperidin-4-yl)pyridin-4-yl)methyl)-3-phenoxybenzamide]
GFAP level in cortex (GFAP): reduced | GFAP level in hippocampus (GFAP): reduced | total NO3+NO2 in whole-brain lysate (NO3+NO2): 3.90 ± 0.667 µM | perfusion (C57BL/6J mice; C57 mice, decreased PRMT4 via TP-064/PRMT4-AAV): did not affect | regional cortical CBF (C57BL/6J mice; treated C57BL/6J mice, 30 mg/kg, IP, 7 days): 98.3±10.1% | leukocyte rolling velocity (aged 3xTg-AD female mice [1]): increased | T-maze spontaneous alternation ratio (aged 3xTg-AD female mice [2]): increased
